Active and inactive are the calls of the source.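 Rule for the calls: active = compounds cutting recovered intracellular Salmonella colonies below 0.7 of the DMSO level; inactive = the rest.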
These compounds were tested on HeLa infected S. Typhimurium SL1344, CFU, 6 h (assay: reduction of bacterial load in infected HeLa – cell-based, colony forming units, SL1344 (AID 1963953)). Conditions: at 20 µM; stronger effect = lower value.

Question: Which normalized CFU (DMSO = 1) does the source give for `CC(=O)N1[C@@H]2CC[C@H]1CC(Nc1nc(NCCc3sc(N)nc3C)nc(N3CCn4ncnc4C3)n1)C2` (stereo not given in full) here?
Answer: 0.97 (inactive)

Question: With `CCC(C)(C)C(=O)C(=O)N1CCCC[C@H]1C(=O)N[C@H](CCc1ccc(OC)cc1)C(=O)N1[C@@H]2CC[C@H]1CC(NC(C)=O)C2` (stereo not given in full) as the compound, how does the normalized CFU (DMSO = 1) read?
Answer: 0.77 (inactive)

Question: How did the normalized CFU (DMSO = 1) turn out when `CCC(C)(C)C(=O)C(=O)N1CCCC[C@H]1C(=O)N[C@H](CCc1ccc(OC)cc1)C(=O)N1[C@@H]2CC[C@H]1CC(Nc1nc(NCCc3sc(N)nc3C)nc(N3CCn4ncnc4C3)n1)C2` (stereo not given in full) was run?
Answer: 0.31

Question: For `CS(C)=O`, which normalized CFU (DMSO = 1) is on record?
Answer: 1 (inactive)

Question: For `CCC(C)(C)C(=O)C(=O)N1CCCC[C@H]1C(=O)N[C@H](CCc1ccc(OC)cc1)C(=O)N1[C@@H]2CC[C@H]1CC(Nc1nc(NCCc3ccccc3)nc(N3CCn4ncnc4C3)n1)C2` (stereo not given in full), which normalized CFU (DMSO = 1) is on record?
Answer: 0.47

Reference: PubChem BioAssay AID1963953
